Assay results from patent US10570129B2 (Zoetis Services LLC, priority 2015, dated 2020).

How the values were obtained:
Haemonchus contortus L3 = experiment: microbe, parasite or virus in culture; type: cell-based; settings: Haemonchus contortus, 96 h, read-out: HcL3 Minimal Effective Concentration (MEC)
D. immitis microfilariae = experiment: Dirofilaria immitis, microfilariae (DiMF) in vitro motility assay; type: cell-based; settings: Dirofilaria immitis, 72 h, read-out: DiMF minimally effective dose (MEC)

Row | SMILES | minimal effective concentration (Haemonchus contortus L3) [µM] | minimal effective concentration (D. immitis microfilariae) [µM]
1 | N#Cc1ccc2c3c(n(C(=O)NCc4ccnc(Cl)c4)c2c1)CCN(C/C=C/c1ccc(Br)c(F)c1)C3 [Example 8, (E)-2-(3-(4-bromo-3-fluorophenyl)allyl)-N-((2-chloropyridin-4-yl)methyl)-7-cyano-1,2,3,4-tetrahydro-5H-pyrido[4,3-b]indole-5-carboxamide] | 0.5 | 18.2
2 | O=C(NCc1ccnc(F)c1)n1c2c(c3cc(-c4ccc(F)cc4)ccc31)CN(C/C=C/c1ccc(Cl)cc1)CC2 [Example 463, (E)-2-(3-(4-chlorophenyl)allyl)-8-(4-fluorophenyl)-N-((2-fluoropyridin-4-yl)methyl)-1,2,3,4-tetrahydro-5H-pyrido[4,3-b]indole-5-carboxamide] | > 100 | > 100
3 | O=C(NCc1ccnc(Cl)c1)n1c2c(c3cc(Cl)c(Cl)cc31)CN(C/C=C/c1ccc(F)cc1F)CC2 [Example 276, (E)-7,8-dichloro-N-((2-chloropyridin-4-yl)methyl)-2-(3-(2,4-difluorophenyl)allyl)-1,2,3,4-tetrahydro-5H-pyrido[4,3-b]indole-5-carboxamide] | 0.3 | 18.2
4 | N#Cc1ccc2c(c1)c1c(n2C(=O)NCc2ccnc(Cl)c2)CCN(C/C=C/c2ccc(Br)c(F)c2F)C1 [Example 81, (E)-2-(3-(4-bromo-2,3-difluorophenyl)allyl)-N-((2-chloropyridin-4-yl)methyl)-8-cyano-1,2,3,4-tetrahydro-5H-pyrido[4,3-b]indole-5-carboxamide] | 0.2 | > 100
5 | N#Cc1ccc2c(c1)c1c(n2C(=O)NCc2ccnc(Cl)c2)CCN(C/C=C/c2ccc(Cl)cc2)C1 [Example 92, (E)-2-(3-(4-chlorophenyl)allyl)-N-((2-chloropyridin-4-yl)methyl)-8-cyano-1,2,3,4-tetrahydro-5H-pyrido[4,3-b]indole-5-carboxamide] | 0.3 | 3.3
6 | CSc1ccc2c(c1)c1c(n2C(=O)NCc2ccnc(Cl)c2)CCN(C/C=C/c2ccc(Cl)cc2)C1 [Example 447, (E)-2-(3-(4-chlorophenyl)allyl)-N-((2-chloropyridin-4-yl)methyl)-8-(methylthio)-1,2,3,4-tetrahydro-5H-pyrido[4,3-b]indole-5-carboxamide] | 0.5 | 3.3
7 | N#Cc1ccc2c(c1)c1c(n2C(=O)NCc2ccnc(F)c2)CCN(C/C=C/c2ccc(Cl)cc2F)C1 [Example 104, (E)-2-(3-(4-chloro-2-fluorophenyl)allyl)-8-cyano-N-((2-fluoropyridin-4-yl)methyl)-1,2,3,4-tetrahydro-5H-pyrido[4,3-b]indole-5-carboxamide] | 0.1 | 3.2
8 | O=C(NCc1ccnc(Cl)c1)n1c2c(c3cc(OC(F)(F)F)c(F)cc31)CN(C/C=C/c1ccc(Cl)cc1)CC2 [Example 495, (E)-2-(3-(4-chlorophenyl)allyl)-N-((2-chloropyridin-4-yl)methyl)-7-fluoro-8-(trifluoromethoxy)-1,2,3,4-tetrahydro-5H-pyrido[4,3-b]indole-5-carboxamide] | 1 | 10
9 | N#Cc1cc(/C=C/CN2CCc3c(c4cc(Cl)ccc4n3C(=O)NCc3ccnc(Cl)c3)C2)ccc1F [Example 234, (E)-8-chloro-N-((2-chloropyridin-4-yl)methyl)-2-(3-(3-cyano-4-fluorophenyl)allyl)-1,2,3,4-tetrahydro-5H-pyrido[4,3-b]indole-5-carboxamide] | 0.1 | 3.3
10 | N#Cc1ccc2c3c(n(C(=O)NCc4ccnc(Cl)c4)c2c1)CCN(C/C=C/c1cc(Br)ccc1F)C3 [Example 11, (E)-2-(3-(5-bromo-2-fluorophenyl)allyl)-N-((2-chloropyridin-4-yl)methyl)-7-cyano-1,2,3,4-tetrahydro-5H-pyrido[4,3-b]indole-5-carboxamide] | 1.8 | > 100
11 | O=C(NCc1ccnc(F)c1)n1c2c(c3cc(OC(F)(F)F)ccc31)CN(C/C=C/c1ccc(Cl)c(F)c1)CC2 [Example 401, (E)-2-(3-(4-chloro-3-fluorophenyl)allyl)-N-((2-fluoropyridin-4-yl)methyl)-8-(trifluoromethoxy)-1,2,3,4-tetrahydro-5H-pyrido[4,3-b]indole-5-carboxamide] | 0.5 | 18.2
12 | N#Cc1ccc2c(c1)c1c(n2C(=O)NCc2ccnc(F)c2)CCN(C/C=C/c2c(F)cc(F)cc2F)C1 [Example 106, (E)-8-cyano-N-((2-fluoropyridin-4-yl)methyl)-2-(3-(2,4,6-trifluorophenyl)allyl)-1,2,3,4-tetrahydro-5H-pyrido[4,3-b]indole-5-carboxamide] | 0.3 | > 100
13 | O=C(NCc1ccnc(Cl)c1)n1c2c(c3ccc(C(F)(F)F)cc31)CN(C/C=C/c1ccc(F)cc1)CC2 [Example 160, (E)-N-((2-chloropyridin-4-yl)methyl)-2-(3-(4-fluorophenyl)allyl)-7-(trifluoromethyl)-1,2,3,4-tetrahydro-5H-pyrido[4,3-b]indole-5-carboxamide] | 1.8 | 10
14 | O=C(NCc1ccnc(Cl)c1)n1c2c(c3cc(Br)c(F)cc31)CN(C/C=C/c1ccc(Cl)cc1)CC2 [Example 197, (E)-8-bromo-2-(3-(4-chlorophenyl)allyl)-N-((2-chloropyridin-4-yl)methyl)-7-fluoro-1,2,3,4-tetrahydro-5H-pyrido[4,3-b]indole-5-carboxamide] | 0.4 | 4.4
15 | O=C(NCc1ccnc(Cl)c1)n1c2c(c3cc(Br)c(C(F)(F)F)cc31)CN(C/C=C/c1ccc(Cl)cc1)CC2 [Example 498, (E)-8-bromo-2-(3-(4-chlorophenyl)allyl)-N-((2-chloropyridin-4-yl)methyl)-7-(trifluoromethyl)-1,2,3,4-tetrahydro-5H-pyrido[4,3-b]indole-5-carboxamide] | 1.8 | 5.7
16 | O=C(NCc1ccnc(Cl)c1)n1c2c(c3ccc(Cl)cc31)CN(C/C=C/c1ccc(C(F)(F)F)cn1)CC2 [Example 206, (E)-7-chloro-N-((2-chloropyridin-4-yl)methyl)-2-(3-(5-(trifluoromethyl)-pyridin-2-yl)allyl)-1,2,3,4-tetrahydro-5H-pyrido[4,3-b]indole-5-carboxamide] | 0.2 | 3.3
17 | N#Cc1ccc2c(c1)c1c(n2C(=O)NCc2ccnc(F)c2)CCN(C/C=C/c2ccncc2)C1 [Example 124, (E)-8-cyano-N-((2-fluoropyridin-4-yl)methyl)-2-(3-(pyridin-4-yl)allyl)-1,2,3,4-tetrahydro-5H-pyrido[4,3-b]indole-5-carboxamide] | 100 | 33
18 | N#Cc1ccc(/C=C/CN2CCc3c(c4cc(Cl)ccc4n3C(=O)NCc3ccnc(Cl)c3)C2)cc1 [Example 241, (E)-8-chloro-N-((2-chloropyridin-4-yl)methyl)-2-(3-(4-cyanophenyl)allyl)-1,2,3,4-tetrahydro-5H-pyrido[4,3-b]indole-5-carboxamide] | 0.4 | 13.5
19 | N#Cc1ccc2c(c1)c1c(n2C(=O)NCc2ccnc(O)c2)CCN(C/C=C/c2cc(F)c(Cl)c(F)c2)C1 [Example 450, (E)-2-(3-(4-chloro-3,5-difluorophenyl)allyl)-8-cyano-N-((2-hydroxypyridin-4-yl)methyl)-1,2,3,4-tetrahydro-5H-pyrido[4,3-b]indole-5-carboxamide] | 0.5 | 100
20 | O=C(NCc1ccnc(F)c1)n1c2c(c3cc(F)c(OC(F)(F)F)cc31)CN(C/C=C/c1ccc(Cl)cc1)CC2 [Example 472, (E)-2-(3-(4-chlorophenyl)allyl)-8-fluoro-N-((2-fluoropyridin-4-yl)methyl)-7-(trifluoromethoxy)-1,2,3,4-tetrahydro-5H-pyrido[4,3-b]indole-5-carboxamide] | 1 | 10
21 | N#Cc1ccc2c3c(n(C(=O)NCc4ccnc(Cl)c4)c2c1)CCN(C/C=C/c1c(F)c(F)c(Cl)c(F)c1F)C3 [Example 17, (E)-2-(3-(4-chloro-2,3,5,6-tetrafluorophenyl)allyl)-N-((2-chloropyridin-4-yl)methyl)-7-cyano-1,2,3,4-tetrahydro-5H-pyrido[4,3-b]indole-5-carboxamide] | 1 | > 100
22 | COc1ccc(/C=C/CN2CCc3c(c4cc(Cl)c(Cl)cc4n3C(=O)NCc3ccnc(Cl)c3)C2)cc1 [Example 283, (E)-7,8-dichloro-N-((2-chloropyridin-4-yl)methyl)-2-(3-(4-methoxyphenyl)allyl)-1,2,3,4-tetrahydro-5H-pyrido[4,3-b]indole-5-carboxamide] | 0.5 | 3.3
23 | N#Cc1ccc2c(c1)c1c(n2C(=O)NCc2ccnc(O)c2)CCN(C/C=C/c2cc(Cl)c(F)c(Cl)c2)C1 [Example 452, (E)-8-cyano-2-(3-(3,5-dichloro-4-fluorophenyl)allyl)-N-((2-hydroxypyridin-4-yl)methyl)-1,2,3,4-tetrahydro-5H-pyrido[4,3-b]indole-5-carboxamide] | > 100 | > 100
24 | N#Cc1ccc2c(c1)c1c(n2C(=O)NCc2ccnc(Cl)c2)CCN(C/C=C/c2ccc(F)cc2Cl)C1 [Example 87, (E)-2-(3-(2-chloro-4-fluorophenyl)allyl)-N-((2-chloropyridin-4-yl)methyl)-8-cyano-1,2,3,4-tetrahydro-5H-pyrido[4,3-b]indole-5-carboxamide] | 0.2 | 5.7
25 | O=C(NCc1ccnc(Cl)c1)n1c2c(c3cc(F)ccc31)CN(C/C=C/c1ccc(Cl)c(Cl)c1)CC2 [Example 167, (E)-N-((2-chloropyridin-4-yl)methyl)-2-(3-(3,4-dichlorophenyl)allyl)-8-fluoro-1,2,3,4-tetrahydro-5H-pyrido[4,3-b]indole-5-carboxamide] | 0.3 | 33
